# Assay results taken from ChEMBL document CHEMBL3046784, “Exploring QSAR of antiamoebic agents of isolated natural products by MLR, ANN, and RTO” (Med Chem Res, 2012).
# System: Entamoeba histolytica
# Assay: Antiamoebic activity against Entamoeba histolytica
# Type: functional, organism-based
# Conditions: not given
row,SMILES,IC50 [µg/mL]
1,COc1cc2c3cc1Oc1c(OC)c(OC)cc4c1[C@H](Cc1ccc(cc1)Oc1cc(ccc1O)C[C@H]3N(C)CC2)N(C)CC4 (stereo in doubt; 13) [AROMOLINE],2.99
2,COc1cc2c3cc1Oc1c(OC)c(OC)cc4c1[C@H](Cc1ccc(cc1)Oc1cc(ccc1O)C[C@H]3N(C)CC2)N(C)CC4 (stereo in doubt; 117) [AROMOLINE],19.64
3,COc1ccc2cc1Oc1ccc(cc1)C[C@H]1c3cc(c(OC)cc3CCN1C)Oc1c(OC)c(OC)cc3c1[C@H](C2)N(C)CC3 (stereo in doubt; 145) [FANCHININ],25.16
4,COc1ccc2cc1Oc1ccc(cc1)C[C@H]1c3cc(c(OC)cc3CCN1C)Oc1c(OC)c(OC)cc3c1[C@H](C2)N(C)CC3 (stereo in doubt; 146) [FANCHININ],10.51

# Same assay, conditions: Entamoeba histolytica; read-out: IC50
row,SMILES,IC50 [µg/mL]
1,CC[C@H]1CN2CCc3c([nH]c4ccccc34)[C@@H]2C[C@H]1C[C@H]1c2[nH]c3ccccc3c2CCN1C.O=C(O)C(=O)O,0.65
2,CC(C)=CCC/C(C)=C/CC/C(C)=C/CC/C=C(\C)CC/C=C(\C)CCC=C(C)C,270
3,COC1=C[C@]23CCN(C)[C@H](Cc4cc(OC)c(OC)cc42)C3=CC1=O,50.1
4,CC[C@](C)(OC(C)=O)C(=O)O[C@H]1C(=O)O[C@@H]2C[C@H]3C(C)=CC(=O)[C@@H](O)[C@]3(C)[C@H]3[C@@]4(O)OC[C@]32[C@@H]1[C@@H](C)[C@H]4O [2'-ACETOXY-GLAUCARUBINONE],0.155
5,"COc1c(O)cc2oc(-c3ccc(O)cc3)c(OC)c(=O)c2c1O [3,6-DIMETHOXY KAEMPFEROL]",105
6,C=C[C@H]1CN2CC[C@H]1C[C@@H]2[C@@]12Nc3ccccc3[C@]1(O)CCO2 [3-EPIQUINAMINE],12.9
7,CC[C@@H]1CN2CCc3c([nH]c4ccccc34)[C@H]2C[C@@H]1CCO [3-ISOCORYNANTHEOL],4.1
8,C=C[C@H]1CN2CCc3c([nH]c4ccccc34)[C@@H]2C[C@@H]1C[C@H]1NCCc2c1[nH]c1cccc(OC)c21 [3ALPHA-17ALPHA-CINCHOPHYLLINE],2.2
9,C=C[C@H]1CN2CCc3c([nH]c4ccccc34)[C@@H]2C[C@@H]1C[C@@H]1NCCc2c1[nH]c1cccc(OC)c21 [3ALPHA-17BETA-CINCHOPHYLLINE],0.96
10,"CCc1ccc2[n+](c1)CCc1c-2[nH]c2ccccc12 [5,6-DIHYDROFLAVOPEREIRINE]",6.02
11,C=C[C@H]1CN2CC[C@H]1C[C@H]2c1[nH]c2ccccc2c1CCOC [10-METHOXY CINCHONAMINE],4.5
12,CC[C@@H]1CN2CC[C@@]34c5ccccc5N5[C@@H]([C@@H]6[C@H]7C[C@@H]8N(CC[C@@]89c8cccc(O)c8N(C(C)=O)[C@@H]69)C[C@H]7CC)OC[C@H]([C@H]1C[C@H]23)[C@H]54 [12'-HYDROXYISOSTRYCHNOBILINE],21.4
13,Oc1cc(O)c2c(c1)O[C@H](c1ccc(O)c(O)c1)[C@H](O)C2 [(-)-EPICATECHIN],1.92
14,COC(=O)C1=CO[C@H](O[C@@H]2O[C@H](COC(C)=O)[C@@H](O)[C@H](O)[C@H]2O)[C@H]2[C@@H]1C=C[C@@]21C=C(C(O)c2ccc(O)cc2)C(=O)O1 (stereo not given in full) [ACETYLGAERTNEROSIDE],5.4
15,CCC(C)C(=O)O[C@H]1C(=O)O[C@@H]2C[C@H]3C(C)=CC(=O)[C@@H](O)[C@]3(C)[C@H]3[C@]4(O)OC[C@]32[C@@H]1[C@@H](C)[C@H]4O (stereo not given in full) [AILANTHINONE],0.063
16,CC[C@H]1[C@@H]2C[C@H]3[C@@H]4N(C)c5ccccc5[C@]45C[C@@H]([C@@H]2[C@H]5O)N3[C@@H]1O [AJMALINE],> 100
17,C/C=C(/C=O)[C@@H]1C[C@H]2c3c(c4ccccc4n3[C@@H](O)C1)CCN2C [AKAGERINE],17.1
18,O=c1cc(-c2ccc(O)cc2)oc2cc(OC3O[C@H](CO)[C@@H](O)[C@H](O)[C@H]3O)cc(O)c12 (stereo not given in full) [APIGENIN-7-O-GLUCOSIDE],59.8
19,O=c1cc(-c2ccc(O)cc2)oc2cc(O)cc(O)c12 [APIGENIN],12.7

row,SMILES,IC50 [µg/mL]
1,COC(=O)C1=CO[C@@H](C)[C@@H]2CN3CCc4c([nH]c5ccc(OC)cc45)[C@@H]3C[C@H]12 [ARICINE],3.6
2,CN1[C@@H]2CC[C@H]1C[C@@H](OC(=O)C(CO)c1ccccc1)C2 (stereo not given in full) [ATROPINE],> 100
3,COc1cc2c3cc1Oc1c(OC)c(OC)cc4c1[C@@H](Cc1ccc(O)c(c1)Oc1ccc(cc1)C[C@@H]3N(C)CC2)N(C)CC4 [BERBAMINE],22.4
4,COc1ccc2cc3[n+](cc2c1OC)CCc1cc2c(cc1-3)OCO2 [BERBERINE],1
5,CC[C@H](CC[C@@H](C)[C@H]1CC[C@H]2[C@@H]3CC=C4C[C@@H](O)CC[C@]4(C)[C@H]3CC[C@]12C)C(C)C [BETA-SITOSTEROL],52.3
6,C/C=C(/C)C(=O)O[C@H]1[C@@H]2[C@H](C)C(=O)O[C@@H]2C[C@@H](C)[C@@H]2C=CC(=O)[C@]21C [BREVILIN A],3.11
7,COC(=O)[C@@]12OC[C@]34[C@H]([C@@H](O)[C@@H]1O)[C@@]1(C)CC(=O)C(O)=C(C)[C@@H]1C[C@H]3OC(=O)[C@H](OC(=O)/C=C(\C)C(C)C)[C@@H]24 [BRUCEANTIN],0.019
8,COC(=O)[C@@]12OC[C@]34[C@H]([C@@H](O)[C@@H]1O)[C@@]1(C)CC(=O)C(O)=C(C)[C@@H]1C[C@H]3OC(=O)[C@H](OC(=O)CC(C)C)[C@@H]24 [BRUCEINE A],0.097
9,COC(=O)[C@@]12OC[C@]34[C@H]([C@@H](O)[C@@H]1O)[C@@]1(C)CC(=O)C(O)=C(C)[C@@H]1C[C@H]3OC(=O)[C@H](OC(C)=O)[C@@H]24 [BRUCEINE B],0.306
10,COC(=O)[C@]12OC[C@]34[C@H]([C@@H](O)[C@@H]1O)[C@@]1(C)CC(=O)C(O)=C(C)[C@@H]1C[C@H]3OC(=O)[C@H](OC(=O)/C=C(\C)C(C)(C)O)[C@@H]24 [BRUCEINE C],0.279
11,CC1=CC(=O)[C@@H](O)[C@]2(C)[C@H]3[C@@H](O)[C@H](O)[C@]4(C)OC[C@@]35[C@@H](C[C@@H]12)OC(=O)[C@H](O)[C@]54O [BRUCEINE D],0.386
12,COC(=O)[C@]12OC[C@]34[C@H]([C@@H](O)[C@@H]1O)[C@@]1(C)CC(=O)C(O)=C(C)[C@@H]1C[C@H]3OC(=O)[C@H](OC(=O)C=C(C)C)[C@@H]24 [BRUSATOL],0.062
13,O=c1ccc2nccc3c4ccccc4n1c23 [CANTHIN-6-ONE],23
14,CC(=O)CCCCCCCCCC[C@H]1CC[C@@H](O)[C@@H](C)N1 [CASSINE],12
15,CC[C@H]1CN2CCc3cc(OC)c(OC)cc3[C@@H]2C[C@@H]1C[C@H]1NCCc2cc(O)c(OC)cc21 [CEPHAELINE],3.26
16,O=c1cc(-c2ccccc2)oc2cc(O)cc(O)c12 [CHRYSIN],81
17,COc1cc(-c2cc(=O)c3c(O)cc(O[C@@H]4O[C@H](CO)[C@@H](O)[C@H](O)[C@H]4O[C@@H]4O[C@@H](C)[C@H](O)[C@@H](O)[C@H]4O)cc3o2)ccc1O [CHRYSOERIOL-7-O-NEOHESPERIDOSIDE],> 125
18,Cc1cc(O)c2c(c1)C(=O)c1cccc(O)c1C2=O [CHRYSOPHANOL],6.21
19,Oc1cc(O)c2c(c1)O[C@H](c1ccc(O)c(O)c1)[C@@H](O)C2 [CIANIDANOL],65.5

row,SMILES,IC50 [µg/mL]
1,C=C[C@H]1CN2CC[C@H]1C[C@H]2c1[nH]c2ccccc2c1CCO [CINCHONAMINE],14.8
2,COc1cc2c3c4c1Oc1cc5c(cc1O4)[C@H](Cc1ccc(O)c(c1)Oc1ccc(cc1)C[C@@H]3N(C)CC2)NCC5 [COCSOLINE],9.86
3,CI.COc1cc2c3c4c1Oc1cc5c(cc1O4)[C@H](Cc1ccc(O)c(c1)Oc1ccc(cc1)C[C@@H]3N(C)CC2)N(C)CC5 [COCSULINE METHIODIDE],28.9
4,COc1cc2c3c4c1Oc1cc5c(cc1O4)[C@H](Cc1ccc(O)c(c1)Oc1ccc(cc1)C[C@@H]3N(C)CC2)N(C)CC5 [COCSULINE],13.2
5,C[C@@H]1N=C[C@]23CC[C@H]4[C@@H](CC=C5C[C@@H](N)CC[C@@]54C)[C@@H]2CC[C@H]13 [CONCKURCHINE],12
6,CN[C@H]1CC[C@@]2(C)C(=CC[C@H]3[C@@H]4CC[C@@H]5[C@H](C)N=C[C@@]54CC[C@@H]32)C1 [CONESSIDINE],2.29
7,C[C@@H]1NC[C@]23CC[C@H]4[C@@H](CC=C5C[C@@H](N(C)C)CC[C@@]54C)[C@@H]2CC[C@H]13 [CONESSIMINE],1.87
8,C[C@H]1[C@H]2CC[C@H]3[C@@H]4CC=C5C[C@@H](N(C)C)CC[C@]5(C)[C@H]4CC[C@]23CN1C [CONESSINE],8.97
9,COc1ccc2c3c(c4cc(OC)c(OC)cc4c2c1)C[C@H]1CCCCN1C3 [CRYPTOPLEURINE],0.031
10,COc1cc2c3cc1Oc1c(O)c(OC)cc4c1[C@H](Cc1ccc(cc1)Oc1cc(ccc1O)C[C@H]3NCC2)N(C)CC4 [DAPHNOLINE],> 50
11,CC[C@@H]1CN2CC[C@@]34c5ccccc5N5[C@@H]([C@@H]6[C@H]7C[C@@H]8N(CC[C@@]89c8ccccc8N(C(C)=O)[C@@H]69)C[C@H]7CC)OC[C@H]([C@H]1C[C@H]23)[C@H]54 [DIDEHYDRO ISOSTRYCHNOBILINE],21.4
12,COc1ccc2cc1-c1cc(ccc1O)C[C@@H]1c3c(cc(OC)c4c3Oc3cc5c(cc3O4)CCN(C)[C@H]5C2)CCN1C [DINKLACORINE],19.8
13,C/C=C1/C[N+]2(C)CCc3c([nH]c4ccccc34)C2CC1C(CO)C(=O)OC (stereo not given) [DIPLOCELINE],50
14,Oc1cc(O)c2c(c1)O[C@H](c1cc(O)c(O)c(O)c1)[C@H](O)C2 [EPIGALLOCATECHIN],6.89
15,COC(=O)C1=CO[C@H](O[C@@H]2O[C@H](CO)[C@@H](O)[C@H](O)[C@H]2O)[C@H]2[C@@H]1[C@@H]1O[C@@H]1[C@@]21C=C(C(O)c2ccc(O)cc2)C(=O)O1 (stereo not given in full) [EPOXYGAERTNEROSIDE],1.3
16,COc1ccc2cc1Oc1ccc(cc1)C[C@H]1c3cc(c(OC)cc3CCN1C)Oc1c(O)c(OC)cc3c1[C@H](C2)N(C)CC3 [FANGCHINOLINE],14.7
17,O=c1c(O)c(-c2ccc(O)c(O)c2)oc2cc(O)ccc12 [FISETIN],189
18,COc1cc2c3cc1Oc1c(OC)c(OC)cc4c1[C@H](Cc1ccc(O)c(c1)-c1cc(ccc1OC)C[C@H]3N(C)CC2)N(C)CC4 [FUNIFERINE],28.3
